Consider 1 molecule from paper PMC12640663 (Chemmedchem, 2025).

One data set addresses T1, hPTP1B1–285 (Homo sapiens, UniProt P18031).
T1 construct: hPTP1B1–285 (the short form with an N‐terminal catalytic domain)
T1 sequence (P18031 1-285): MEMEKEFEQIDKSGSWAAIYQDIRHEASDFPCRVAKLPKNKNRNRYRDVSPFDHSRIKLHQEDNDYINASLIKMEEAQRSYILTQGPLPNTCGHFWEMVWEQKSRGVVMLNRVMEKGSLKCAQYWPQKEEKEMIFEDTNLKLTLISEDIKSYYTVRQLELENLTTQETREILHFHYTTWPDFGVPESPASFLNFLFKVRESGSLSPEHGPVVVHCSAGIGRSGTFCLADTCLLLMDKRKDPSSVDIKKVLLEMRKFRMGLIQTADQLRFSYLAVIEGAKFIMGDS
Nature of the data set: PTP1B activity assay, short form hPTP1B1–285 (p‐NPP). Format: biochemical. Conditions: ± S.D; p‐NPP substrate, 15 min at 37 °C. Here is the method:
The inhibitory activity of PTP1B was assessed using two enzyme variants: hPTP1B1–285 (the short form with an N‐terminal catalytic domain) and hPTP1B1–400 (the long form with an intrinsically disordered C‐terminal regulatory domain). […] According to Coronel‐Tovar et al., the disordered region of the C‐terminal domain plays a crucial role in modulating PTP1B enzymatic activity.^[ [30] ^] […] Different concentrations of the compounds were evaluated to determine their IC50 values (Table 1 ).
To do so, these terpenoids were tested against hPTP1B1–285.
Recombinant human protein tyrosine phosphatase 1B, consisting of 400 and 285 amino acid residues, was used.^[ [35] ^] […] Aliquots of 0–10 µL of the test compounds (triplicate) were taken and incubated for 15 min at 37 °C with 85 µL of Tris buffer solution (50 mM, pH 6.8) containing PTP1B enzyme and 5 µL of p‐nitrophenyl phosphate substrate (p‐NPP, 10 mM). Absorbance was then measured at a wavelength of 405 nm. The inhibitory activity was determined according to Equation (1). (1) % PTP1B=(A405b/A405c)×100 where % PTP1B: Is the percentage of inhibition. A 405c: Is the corrected absorbance of the blank (A 405initial–A 405final). A 405b: Is the corrected absorbance of the compounds (A 405control–A 405compound).

Another data set concerns HepG2 cells. Nature of the data set: Cell viability with crystal violet. Format: cell-based. The following applies: 1 and 25 µM, 24 h. The procedure:
Subsequently, we evaluated the same compounds in a HepG2 insulin‐resistant model.
A 96‐well plate was seeded with 3,000 cells per well and incubated for 24 h. Afterward, the cells were treated with test compounds at various concentrations for 24 h. After incubation, the media was removed, and 100 µL of 1% glutaraldehyde was added for 15 min. Afterward, the liquid was removed, and 50 µL of 0.5% crystal violet (dissolved in 25% methanol) was added for 30 min. The crystal violet staining solution was removed, and the plate was thoroughly washed with tap water. The precipitate was dissolved in a 10% acetic acid solution and mixed for 15 min. The absorbance was then measured at 590 nm using a plate reader (xMark Microplate Spectrophotometer—Bio‐Rad).
Figure S59. Cell viability assessment by crystal violet staining. HepG2 cell viability was evaluated
after treatment with the respective compounds at concentrations of 1 and 25 µM for 24 hours. Bar
graphs represent mean ± SEM.

The next data set concerns the target T2, hPTP1B1–400 (Homo sapiens, UniProt P18031).
T2 sequence (P18031 1-400): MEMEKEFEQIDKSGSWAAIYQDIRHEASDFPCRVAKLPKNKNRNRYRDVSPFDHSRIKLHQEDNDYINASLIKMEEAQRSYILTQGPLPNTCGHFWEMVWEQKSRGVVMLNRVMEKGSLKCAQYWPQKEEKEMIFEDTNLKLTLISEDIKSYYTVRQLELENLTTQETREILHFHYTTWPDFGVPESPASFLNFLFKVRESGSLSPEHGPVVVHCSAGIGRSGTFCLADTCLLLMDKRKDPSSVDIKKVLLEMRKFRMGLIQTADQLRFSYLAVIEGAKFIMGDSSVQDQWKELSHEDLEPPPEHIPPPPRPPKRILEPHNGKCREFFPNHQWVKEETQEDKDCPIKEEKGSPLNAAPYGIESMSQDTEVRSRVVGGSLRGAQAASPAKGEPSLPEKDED
Nature of the data set: Kinetic studies of PTP1B (hPTP1B1–400).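 Further: enzyme kinetics run across a range of substrate and inhibitor levels, control lacking inhibitor, triplicate runs, parameters derived by fitting Michaelis–Menten style equations.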

Another data set addresses T3, TCPTP (Homo sapiens, UniProt P17706).
T3 sequence (P17706 1-415): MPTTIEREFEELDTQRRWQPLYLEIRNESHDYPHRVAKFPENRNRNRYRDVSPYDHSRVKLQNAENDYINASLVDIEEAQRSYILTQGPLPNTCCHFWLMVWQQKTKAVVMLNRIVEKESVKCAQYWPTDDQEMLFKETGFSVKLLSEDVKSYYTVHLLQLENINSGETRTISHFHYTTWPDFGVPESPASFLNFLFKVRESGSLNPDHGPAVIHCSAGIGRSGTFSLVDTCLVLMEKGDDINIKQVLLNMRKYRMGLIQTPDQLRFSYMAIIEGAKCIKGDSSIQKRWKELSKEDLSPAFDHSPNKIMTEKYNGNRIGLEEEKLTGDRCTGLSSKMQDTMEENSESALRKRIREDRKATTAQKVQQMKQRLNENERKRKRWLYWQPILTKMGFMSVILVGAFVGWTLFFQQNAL
In words: T‐cell protein tyrosine phosphatase (TCPTP) activity assay (p‐NPP). Format: biochemical. Conditions: ± S.D; assessed up to 100 μM; read-out: TCPTP IC50. The procedure: The effectiveness and safety of protein tyrosine phosphatase (PTP) inhibitors depend on their specificity. PTP1B and TCPTP serve different functions: PTP1B is involved in metabolism and cancer, while TCPTP regulates immune function. Inhibiting TCPTP could impact the immune response, whereas inhibiting PTP1B may benefit metabolic diseases without these side effects.^[ [20] ^, [34] ^, [35] ^] […] These compounds were assessed up to 100 μM (Table 1).
TCPTP enzyme reported by Mendoza et al. was used for this assay. […] Aliquots of 0–10 µL (triplicate) of the newly synthesized compounds, positive control, and solvent were taken. These were incubated with 85 µL of enzyme solution (Tris, 50 mM, pH 6.8, TCPTP) and 5 µL of substrate (p‐NPP, 10 mM) for 15 min at 37 °C.

The mark [1] stands for this setting: ± S.D, hPTP1B1–400 with inhibitor.

“Also recorded” adds a separate entry of the source.

Method for hPTP1B1–400: Kinetic analyses were performed at various substrate and inhibitor concentrations.
The negative control was prepared with the enzyme and substrate in the absence of the inhibitor. Experiments were conducted in triplicate.^[ [30] ^] […] The kinetic parameters of enzyme inhibition, K m and V max, were determined by fitting the data to the Michaelis‐Menten model, Equation (3) (OriginPro 2018 (64‐bit) SR1). (3) y=VmaxX/Km+X´ where V max: is the maximum velocity, X: is the inhibitor concentration, K m: Michaelis constant.
(4) y=Vmax(X)/(Km/1+I/Ki)+X where V max: maximum velocity, X: substrate concentration, I: inhibitor concentration, K m: Michaelis constant, K i : inhibition constant.

Usually IC50 stands for the midpoint of a concentration-inhibition curve. One may read the Ki as a measure of affinity in units of concentration, obtained from inhibition or displacement. A lower Ki goes with tighter binding. On hPTP1B1–285, `CC1(C(=O)O)CCC2(C)CCC3(C)C(=CC(=O)C4C5(C)Cc6c([nH]c7ccc(C(F)(F)F)cc67)C(C)(C)C5CCC43C)C2C1` (stereo not shown) [Compound 3c] returned an IC50 of 14.9 ± 0.95 µM. Further, in the data set with HepG2 cells, the HepG2 cell viability result is given as “No significant differences; also recorded: did not compromise HepG2 cell viability”. Also, at hPTP1B1–400 (K i, ± S.D, hPTP1B1–400, p‐NPP 0.1 to 0.5 mM), the affinity, expressed as Ki, was 0.071 ± 0.008 µM. Also, the Inhibition type result at hPTP1B1–400 (hPTP1B1–400) is listed as “uncompetitive inhibition”. At hPTP1B1–400 (setting [1]), the K m worked out at 520 ± 70 µM and the V max was determined as 0.62 ± 0.05 mM/min. Further, on TCPTP, the IC50 is more than 100 µM.
